Assay results as given in PMC8583417, “Evaluation of the Antimicrobial Efficacy of N-Acetyl-L-Cysteine, Rhamnolipids, and Usnic Acid—Novel Approaches to Fight Food-Borne Pathogens” (International Journal of Molecular Sciences, 2021).

Tests used:
L. monocytogenes 149 = assay: CLSM analysis, biofilm prevention; assay type: cell-based, Listeria monocytogenes; conditions: for proportion of membrane-compromised cells: 24 h; for Thickness (µm) MICBM80 / Thickness (µm) subCBM80: 24 h exposure; for Thickness (µm) MICBM80: substance at its MICBM80, mean ± SD; for Thickness (µm) subCBM80: substance at subinhibitory concentration, mean ± SD
Description: (§1) Biofilm prevention and removal analyses were performed using previously determined minimum inhibitory and subinhibitory concentrations for metabolic activity (MICBM80, subCBM80; MICMPB80, subCMPB80) of NAC, RLs, and UA specific for each tested strain. Selected concentrations were used to evaluate the inhibition of biofilm formation (biofilm prevention) and the reduction in previously formed biofilms (biofilm removal) for the same set of microorganisms, with the exception of S. Infantis, which was excluded from the analysis due to its inability to form biofilm in the selected microtiter plate. Biofilm prevention and removal were observed using CLSM with specific staining to distinguish between live and membrane-compromised cells. Images were analyzed to evaluate (i). the total volume of the biomass, (ii). ratios of live and membrane-compromised cells, and (iii). to calculate biofilm volume reduction for individual organisms after the respective treatment types. The total biofilm volume was normalized by the area of the well and expressed as an average biofilm thickness. Complete data are provided in Supplementary Materials (Tables S1–S8).
(§2) For both inhibition and reduction of biofilms, overnight cultures from BHI were diluted in TSB + 1% Glc to reach an absorbance of 0.08 to 0.1 at 625 nm. The inoculum (150 µL) was transferred into wells of the 96-well flat-bottomed Ibidiμ-Plate (Ibidi, Gräfelfing, Germany) and mixed with 150 µL of each of the three tested substances in technical quadruplicates, followed by incubation at 37 °C for 24 h. Simultaneously, the prepared bacterial suspensions were inoculated to an additional microtiter plate (200 µL) and allowed to form biofilm overnight (18 h at 37 °C). After the incubation, the content of the well was drained off, and 200 µL of each of the three tested substances was added to the plate, which was then incubated for an additional 20 h. The used concentrations of the substances represented the subinhibitory and minimum inhibitory concentrations for metabolic activity (subCBM80, MICBM80; subCMPB80, MICMPB80). Both setups contained a positive control of the bacterial growth (inoculum mixed with sterile TSB + 1% Glc medium) and a control monitoring microbial contamination (sterile medium). Non-treated wells were used as a positive control for comparison between non-treated and treated biofilm mass.
(§3) Prior to the imaging, the wells were stained with the LIVE/DEAD® BacLight™ Bacterial Viability Kit (Thermo Fisher Scientific, MA, USA) following the manufacturer’s guidelines and Drago et al.. Briefly, equal volumes of SYTO® 9 and propidium iodide were combined with the sterile distilled water to reach a final concentration of […]. The biofilm mass was stained using 300 µL of the staining solution per well followed by incubation at 37 °C in the dark for 15 min. Stained wells were washed once with sterile distilled water, which was then added to each well (300 µL). Images were acquired with an inverted Leica SP5 CLSM using a 1.25× dry objective (WD 3.7 mm, Z-resolution 27 µm, up to 24 Z-stacks per well) to visualize an entire well. Samples were kept at the cultivation conditions (37 °C, 5% CO2, 90% humidity) with an OkoLabs stage top environmental chamber (Oko Labs, PA, USA). Fluorophore excitation lasers and emission bandwidths were as follows: SYTO® 9 (ex/em 485/498 nm) 488 nm excitation, 495 to 550 nm emission collection; propidium iodide (ex/em 535/617 nm) 561 nm excitation, 595 to 650 nm emission collection. The laser beam scanned the visual field at a frequency of 600 Hz. The wells were captured in snapshots of 1024 × 1024 pixels representing the area of 153.76 mm^2.
(§4) All collected images were statistically evaluated to quantify biovolume utilizing the surface estimation procedure described in Parker et al.. […]

L. monocytogenes 164 = assay: CLSM analysis, biofilm prevention; assay type: cell-based, Listeria monocytogenes; conditions: for Thickness (µm) MICBM80 / Thickness (µm) subCBM80: 24 h exposure; for Thickness (µm) MICBM80: substance at its MICBM80, mean ± SD; for Thickness (µm) subCBM80: substance at subinhibitory concentration, mean ± SD
Description: as §1, §2, §3, §4

[1] = system: S. Enteritidis ATCC 13076; assay: CLSM analysis, biofilm removal (preformed biofilm); assay type: cell-based, Salmonella enterica Enteritidis; conditions: 20 h exposure, mean ± SD; for Thickness (µm) subCBM80: substance at subinhibitory concentration
Description: as §1
At first, bacterial suspensions were cultivated in microtiter plates to produce overnight biofilms (18 h). […] cells were then washed out, and the remaining biofilms were further cultivated for an additional 20 h with selected compounds. Following biofilm cultivation, biomass was observed using CLSM with live/membrane-compromised cell staining. Biomass images from biofilm removal treatments were similar to results from biofilm prevention, where biomass was highly diversified across the bacterial species and strains. Visually, biomass images were fairly consistent within the quadruplicates for each tested organism. Non-treated biofilms of S. aureus contained consistent biomass spread across the well (S. aureus 816) or grown around the edges (S. aureus 1241). […]
For both inhibition and reduction of biofilms, overnight cultures from BHI were diluted in TSB + 1% Glc to reach an absorbance of 0.08 to 0.1 at 625 nm. […]

SMILES	proportion of membrane-compromised cells (L. monocytogenes 149; MIC)	Thickness (µm) MICBM80 (L. monocytogenes 149)	Thickness (µm) subCBM80 (L. monocytogenes 149)	Thickness (µm) MICBM80 (L. monocytogenes 164)	Thickness (µm) subCBM80 (L. monocytogenes 164)	Thickness (µm) subCBM80 [1]	proportion of membrane-compromised cells (L. monocytogenes 149; MIC and subinhibitory concentration)	proportion of membrane-compromised cells, increase (L. monocytogenes 164; 24 h, MIC)	Thickness (µm) MICBM80 ([1]; substance at its MIC)
CC(=O)c1c(O)c(C)c(O)c2c1OC1=CC(=O)C(C(C)=O)C(=O)C12C (single isomer, unassigned; (+)) [UA, (+)-usnic acid]	up to 15%	175 ± 79.4 µm	268 ± 68.9 µm	325 ± 70.5 µm	417 ± 40.4 µm	203 ± 19.8 µm	–	–	–
CC(=O)N[C@@H](CS)C(=O)O [NAC, N-Acetyl-L-cysteine]	–	86.5 ± 2.6 µm	238 ± 32 µm	158 ± 93.2 µm	288 ± 40.6 µm	229 ± 54.9 µm	up to 25%	about 45%	212 ± 16.6 µm
